According to ChEMBL document CHEMBL1201862, “PubChem BioAssay data set” (2004):
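In this assay, cells in 96-well plates receive the compound at five concentrations for 48 hours. Endpoints are linearly interpolated between the surrounding concentrations. GI50 is the concentration that inhibits growth by half.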 Active and inactive are the calls of the source. No stated cut-off is given here; in the data, active = GI50 up to about 1.1 µM and inactive = higher.

Experiments:
Assay in all cases: NCI anticancer screen, dose series, 48 h
[1] = system: NCI/ADR-RES
[2] = system: HCT-116
[3] = system: MCF7
[4] = system: SK-MEL-28
[5] = system: PC-3
[6] = system: A498
[7] = system: 786-0
[8] = system: M14
[9] = system: MDA-MB-231
[10] = system: SK-OV-3
[11] = system: Malme-3M
[12] = system: SW-620
[13] = system: SNB-75
[14] = system: NCI-H23
[15] = system: UACC-257
[16] = system: RPMI-8226
[17] = system: IGROV-1
[18] = system: MDA-MB-435
[19] = system: HOP-62
[20] = system: SR
[21] = system: SF-295
[22] = system: OVCAR-5
[23] = system: U-251
[24] = system: NCI-H460
[25] = system: NCI-H226
[26] = system: RXF 393
[27] = system: HCT-15
[28] = system: SF-268
[29] = system: DU-145
[30] = system: UO-31
[31] = system: SNB-19
[32] = system: MDA-N
[33] = system: SN12C
[34] = system: K562
[35] = system: A549
[36] = system: SF-539
[37] = system: MOLT-4
[38] = system: COLO 205
[39] = system: CAKI-1
[40] = system: EKVX
[41] = system: BT-549
[42] = system: SK-MEL-2
[43] = system: T47D
[44] = system: UACC-62
[45] = system: HOP-92
[46] = system: HL-60
[47] = system: TK-10
[48] = system: KM12
[49] = system: NCI-H522
[50] = system: OVCAR-8
[51] = system: OVCAR-3
[52] = system: ACHN
[53] = system: OVCAR-4
[54] = system: Hs-578T
[55] = system: HCC 2998
[56] = system: SK-MEL-5
[57] = system: HT-29
[58] = system: CCRF-CEM
[59] = system: LOX IMVI

N=C(/C=C/c1ccc(-c2cn3cc(/C=C/C(=N)N4CCCC4)ccc3n2)cc1)N1CCCC1
GI50 [1]: > 100 µM (inactive)
GI50 [2]: 90.8 µM (inactive)
GI50 [3]: > 100 µM (inactive)
GI50 [4]: > 100 µM (inactive)
GI50 [5]: > 100 µM (inactive)
GI50 [6]: > 100 µM (inactive)
GI50 [7]: 85.5 µM (inactive)
GI50 [8]: > 100 µM (inactive)
GI50 [9]: > 100 µM (inactive)
GI50 [10]: > 100 µM (inactive)
GI50 [11]: 27 µM (inactive)
GI50 [12]: > 100 µM (inactive)
GI50 [13]: > 100 µM (inactive)
GI50 [14]: > 100 µM (inactive)
GI50 [15]: 78.7 µM (inactive)
GI50 [16]: > 100 µM (inactive)
GI50 [17]: > 100 µM (inactive)
GI50 [18]: > 100 µM (inactive)
GI50 [19]: > 100 µM (inactive)
GI50 [20]: > 100 µM (inactive)
GI50 [21]: > 100 µM (inactive)
GI50 [22]: > 100 µM (inactive)
GI50 [23]: 50.2 µM (inactive)
GI50 [24]: 81.3 µM (inactive)
GI50 [25]: > 100 µM (inactive)
GI50 [26]: 50.6 µM (inactive)
GI50 [27]: > 100 µM
GI50 [28]: > 100 µM (inactive)
GI50 [29]: 50 µM (inactive)
GI50 [30]: > 100 µM (inactive)
GI50 [31]: > 100 µM (inactive)
GI50 [32]: > 100 µM (inactive)
GI50 [33]: > 100 µM (inactive)
GI50 [34]: > 100 µM (inactive)
GI50 [35]: 61.9 µM (inactive)
GI50 [36]: 47.3 µM (inactive)
GI50 [37]: > 100 µM (inactive)
GI50 [38]: > 100 µM (inactive)
GI50 [39]: > 100 µM (inactive)
GI50 [40]: > 100 µM (inactive)
GI50 [41]: > 100 µM (inactive)
GI50 [42]: > 100 µM (inactive)
GI50 [43]: > 100 µM (inactive)
GI50 [44]: > 100 µM (inactive)
GI50 [45]: > 100 µM (inactive)
GI50 [46]: > 100 µM (inactive)
GI50 [47]: > 100 µM (inactive)
GI50 [48]: 60.3 µM (inactive)
GI50 [49]: 31 µM (inactive)
GI50 [50]: 79.1 µM (inactive)
GI50 [51]: 60.1 µM (inactive)
GI50 [52]: 68.9 µM (inactive)
GI50 [53]: > 100 µM (inactive)
GI50 [54]: 56.5 µM (inactive)
GI50 [55]: > 100 µM (inactive)
GI50 [56]: > 100 µM (inactive)

O=C(/C=C1\Nc2ccccc2N\C1=C/C(=O)c1ccc(F)cc1)c1ccc(F)cc1
GI50 [1]: > 100 µM (inactive)
GI50 [2]: > 100 µM (inactive)
GI50 [3]: 15.1 µM (inactive)
GI50 [4]: > 100 µM (inactive)
GI50 [5]: > 100 µM (inactive)
GI50 [6]: > 100 µM (inactive)
GI50 [7]: 61.4 µM (inactive)
GI50 [57]: > 100 µM (inactive)
GI50 [8]: > 100 µM (inactive)
GI50 [9]: > 100 µM (inactive)
GI50 [58]: 25.5 µM (inactive)
GI50 [11]: > 100 µM (inactive)
GI50 [12]: > 100 µM (inactive)
GI50 [13]: > 100 µM (inactive)
GI50 [14]: > 100 µM (inactive)
GI50 [15]: > 100 µM (inactive)
GI50 [16]: 51.4 µM (inactive)
GI50 [17]: > 100 µM (inactive)
GI50 [18]: > 100 µM (inactive)
GI50 [19]: 61 µM (inactive)
GI50 [20]: 54.3 µM (inactive)
GI50 [22]: > 100 µM (inactive)
GI50 [23]: 73.6 µM (inactive)
GI50 [24]: 53.7 µM (inactive)
GI50 [25]: > 100 µM (inactive)
GI50 [26]: > 100 µM (inactive)
GI50 [27]: > 100 µM
GI50 [28]: > 100 µM (inactive)
GI50 [29]: > 100 µM (inactive)
GI50 [30]: > 100 µM (inactive)
GI50 [31]: > 100 µM (inactive)
GI50 [32]: > 100 µM (inactive)
GI50 [33]: > 100 µM (inactive)
GI50 [59]: > 100 µM (inactive)
GI50 [34]: > 100 µM (inactive)
GI50 [35]: > 100 µM (inactive)
GI50 [36]: > 100 µM (inactive)
GI50 [37]: > 100 µM (inactive)
GI50 [38]: > 100 µM (inactive)
GI50 [39]: > 100 µM (inactive)
GI50 [40]: > 100 µM (inactive)
GI50 [41]: > 100 µM (inactive)
GI50 [42]: > 100 µM (inactive)
GI50 [43]: 63 µM (inactive)
GI50 [44]: > 100 µM (inactive)
GI50 [45]: > 100 µM (inactive)
GI50 [46]: 46.5 µM (inactive)
GI50 [47]: > 100 µM (inactive)
GI50 [48]: > 100 µM (inactive)
GI50 [49]: > 100 µM (inactive)
GI50 [50]: > 100 µM (inactive)
GI50 [51]: 48.2 µM (inactive)
GI50 [52]: > 100 µM (inactive)
GI50 [53]: > 100 µM (inactive)
GI50 [54]: > 100 µM (inactive)
GI50 [55]: 63.2 µM (inactive)
GI50 [56]: > 100 µM (inactive)
